Reference: patent US20260232684A1, “FLT3 INHIBITORS AND METHODS OF USING THE SAME” (BIOVENTURES, LLC, priority 2023, published 2026)
Entries after “also recorded” stand apart in the source; their conditions may differ.

What was measured:
[1] = system: FLT3 phosphorylation in Molm14 D835Y cells; test: Immunoblotting of phospho-FLT3 and downstream signaling, Molm14 D835Y; assay type: cell-based, human; details: 2 hours, Western blot
Protocol: (§1) FIG. 1. Activity of compounds 1 and 2 against parental Molm14 cells harboring secondary kinase domain mutations associated with clinical resistance to active FLT3 TKIs. […] Each point represents the calculated IC50 from an independent experiment completed in triplicate. Cells were treated with inhibitor at increasing log doses (0.1 nM-10 μM) for 48 hours. Cell viability was analyzed through CellTiter GLO. […] Cells were exposed to increasing amounts of each drug for 2 hours. GAPDH1 represents loading control for phospho-ERK and ERK blots. GAPDH2 represents loading control for phosphor-STAT5, STAT5, phospho-S6 and S6. Each experiment was completed in triplicate. Representative images are shown.
(§2) Exponentially growing Molm-14 or Ba/F3 cells were plated with RPMI 1640+10% (vol/vol) FBS with the indicated amount of drug. Following 120 minute incubation at 37° C., cells were washed in PBS and lysed in HEPES lysis buffer supplemented with protease and phosphatase inhibitors and processed as previously described (39). Immunoblotting was performed using anti-phospho-tyrosine 4G10 antibody (Millipore Sigma) and anti-FLT3 antibody (Cell Signaling Technology) following immunoprecipitation with anti-FLT3 antibody from 500 μg of total protein. Immunoblotting of ERK, STAT5, S6 and GAPDH was performed with anti-phospho-ERK, anti-ERK, anti-phospho-STAT5, anti-STAT5, anti-phospho-S6, anti-S6 and anti-GAPDH antibody (Cell Signaling Technology)

[2] = system: MV-4-11 cells (FLT3-ITD-expressing); test: Cell viability assay (CellTiter GLO), MV-4-11; assay type: cell-based, human; details: MV-4-11, 48 hours
Protocol: (§3) FIG. 1. […] Cells were treated with inhibitor at increasing log doses (0.1 nM-10 μM) for 48 hours. Cell viability was analyzed through CellTiter GLO. […] Cells were exposed to increasing amounts of each drug for 2 hours. GAPDH1 represents loading control for phospho-ERK and ERK blots. GAPDH2 represents loading control for phosphor-STAT5, STAT5, phospho-S6 and S6. Each experiment was completed in triplicate. Representative images are shown.
(§4) MV-4-11 and parental Molm-14 cells were a gift from Dr. Scott Kogan (University of California, San Francisco). HL60 and K562 cell lines were obtained from Charles Sawyers. […] Stable Ba/F3 lines were generated by retroviral infection as previously described (5). All cell lines were tested to be mycoplasma free and human cell lines were authenticated through STR profiling completed at the University of California, Berkeley.
(§5) Each triplicate was either dosed with drug or DMSO vehicle control. Drug dosing was completed at log doses ranging from 0.1 nM-10 μM. Cell viability was assessed after 48 hours using CellTiter GLO (Promega). Viability values were normalized to the vehicle control average. Numerical IC50 values were calculated in GraphPad Prism 7.

FLT3 = FLT3 (Homo sapiens, UniProt P36888); test: Enzyme kinetic analysis (5-FAM microfluidic assay), FLT3; assay type: biochemical; details: variable ATP and inhibitor concentrations
Sequence of FLT3 (P36888 27-993): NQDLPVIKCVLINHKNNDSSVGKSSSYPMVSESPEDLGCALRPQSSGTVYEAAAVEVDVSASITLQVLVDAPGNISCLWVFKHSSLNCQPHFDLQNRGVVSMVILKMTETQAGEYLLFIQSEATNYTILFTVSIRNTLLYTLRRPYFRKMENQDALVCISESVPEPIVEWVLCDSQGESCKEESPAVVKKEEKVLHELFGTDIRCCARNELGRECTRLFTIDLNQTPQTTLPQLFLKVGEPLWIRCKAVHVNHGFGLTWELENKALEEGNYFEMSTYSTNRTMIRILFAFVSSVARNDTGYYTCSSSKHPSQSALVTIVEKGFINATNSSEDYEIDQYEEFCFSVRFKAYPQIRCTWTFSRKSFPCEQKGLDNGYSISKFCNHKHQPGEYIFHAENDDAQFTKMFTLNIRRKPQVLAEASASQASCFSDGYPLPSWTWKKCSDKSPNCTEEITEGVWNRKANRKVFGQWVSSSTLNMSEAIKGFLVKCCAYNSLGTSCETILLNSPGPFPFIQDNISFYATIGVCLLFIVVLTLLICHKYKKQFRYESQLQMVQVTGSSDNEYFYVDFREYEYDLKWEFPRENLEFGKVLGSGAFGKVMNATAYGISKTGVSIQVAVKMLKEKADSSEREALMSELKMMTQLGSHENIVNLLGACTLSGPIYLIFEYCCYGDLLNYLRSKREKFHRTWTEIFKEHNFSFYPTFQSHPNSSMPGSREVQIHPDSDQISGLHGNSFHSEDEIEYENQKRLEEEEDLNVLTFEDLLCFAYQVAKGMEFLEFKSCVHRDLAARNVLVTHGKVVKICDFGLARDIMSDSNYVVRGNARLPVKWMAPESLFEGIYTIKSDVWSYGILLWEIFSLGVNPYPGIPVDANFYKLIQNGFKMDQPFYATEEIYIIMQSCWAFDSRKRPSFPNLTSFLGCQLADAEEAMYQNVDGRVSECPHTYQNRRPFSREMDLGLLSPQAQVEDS
Protocol: FIG. 14. Enzyme kinetic analysis of compound 1 and 2 against FLT3 and FLT3 D835Y. The 5-FAM labeled microfluidic assay was utilized and all the activities were measured using Caliper EZ Reader II with a 12-sipper chip. In the presence of variable concentrations of compound 1 or 2, phosphorylation activities of FLT3 and FLT3 D835Y were measured at different level of ATP within certain time durations.
To further assess putative binding modes of compounds 1 and 2, enzyme kinetic analyses were performed.

[3] = system: HL60 cells (non-FLT3 driven); test: Cell viability assay (CellTiter GLO), HL60; assay type: cell-based, human; details: HL60, 48 hours
Protocol: as §3, §4, §5

Molm14 D835Y cells = test: Cell viability assay (CellTiter GLO), Molm14 D835Y; assay type: cell-based, human; details: 48 hours
Protocol: as §3
FIG. 5. […] Cells were dosed with inhibitor at increasing log doses (0.1 nM-10 μM) for 48 hours. Cell viability was analyzed through CellTiter GLO.
as §4, §5

[4] = system: K562 cells (non-FLT3 driven); test: Cell viability assay (CellTiter GLO), K562; assay type: cell-based, human; details: K562, 48 hours
Protocol: as §3, §4, §5

[5] = system: FLT3 phosphorylation in parental Molm14 cells; test: Immunoblotting of phospho-FLT3 and downstream signaling, Molm14; assay type: cell-based, human; details: parental Molm14, 2 hours, Western blot
Protocol: as §1
as §2, with “Immunoblotting of ERK, STAT5, S6 and GAPDH was performed with anti-phospho-ERK, anti-ERK, anti-phospho-STAT5, anti-STAT5, anti-phospho-S6, anti-S6 and anti-GAPDH antibody (Cell Signaling Technology)” left out

[6] = system: FLT3 phosphorylation in Molm14 F691L cells; test: Immunoblotting of phospho-FLT3 and downstream signaling, Molm14 F691L; assay type: cell-based, human; details: 2 hours, Western blot
Protocol: as §1, §2

[7] = system: Ba/F3 cells transduced with mutagenized FLT3-ITD; test: Saturation mutagenesis resistance selection (XL1-Red mutagenized FLT3-ITD); assay type: cell-based; details: Ba/F3 cells with FLT3-ITD mutant isoforms (FIG. 10)
From the text: FIG. 10. (A) Schematic depicting the saturation mutagenesis experimental design and the range of concentrations for compound 1 and compound 2 to select for resistant cells; (B) Population doublings of XL1-Red-mutagenized FLT3-ITD plasmid-transduced Ba/F3 cells in escalating concentrations of compound 1 and compound 2. Arrows indicate the timepoint of passage when a concentration of 0.1 million cells/mL was achieved; (C) Western blot analysis of lysates collected from transduced Ba/F3 cells cultured in (lane 1) vehicle; (lane 2) 120 nM of compound 1; (lane 3) 120n M of compound 2 (lane 4) Ba/F3 cells transduced with MSCVpuro; (lane M) size marker. […] Left table: identity of mutations detected at escalating concentrations of compounds 1 and 2. Right table: IC50 values of compounds 1 and 2 in Ba/F3 cells transformed to growth factor independence with FLT3-ITD and various mutant isoforms.
To determine if these compounds are potentially vulnerable to novel secondary mutations in FLT3-ITD, Ba/F3 cells were transduced with retrovirus generated using MSCVpuro/FLT3-ITD plasmid purified from the XL1-Red bacterial strain, which is deficient in DNA mismatch repair and introduces random point mutations. This assay has successfully identified point mutations for other FLT3 TKIs that were subsequently validated in samples obtained from patients with acquired resistance. […]

Compound	inhibition of FLT3 phosphorylation and downstream targets, in words [1]	activity in cell viability assay (IC50, FIG. 1A), in words [2]	binding mode / inhibitor type from enzyme kinetics (FLT3)	activity in cell viability assay (IC50, FIG. 1A), in words [3]	activity in cell viability assay (IC50, FIG. 1A/5B), in words (Molm14 D835Y cells)	activity in cell viability assay (IC50, FIG. 1A), in words [4]	inhibition of FLT3 phosphorylation and downstream signaling, in words [5]	inhibition of FLT3 phosphorylation, in words [6]	resistance conferred by secondary FLT3 mutations that confer relative resistance to other FLT3 TKIs [7]	concentration that fully ablated FLT3 phosphorylation [1] [nM]	concentration with complete elimination of phosphorylation [6] [nM]	concentration with noticeable decrease in phosphorylation [6] [nM]
CN(C)CCNc1ncc(F)c(-c2cnc3cc(-c4cnn(C)c4)ccn23)n1 [Compound 1]	potent inhibition of phosphorylation	activity comparable to quizartinib and superior to gilteritinib	type 1 inhibitor; also recorded: type 1 binding mode	neither compound displayed any concerning toxicity	retain activity	neither compound displayed any concerning toxicity	low nanomolar concentrations were sufficient to inhibit phosphorylation of FLT3	decreased level of activity	none of these were capable of conferring significant resistance	–	–	–
CC(C)(C)c1cc(NC(=O)Cc2ccc(-c3cnc4cc(-c5cnn(CCN6CCOCC6)c5)ccc4n3)cc2)no1 [Compound 2, N-(5-(tert-butyl)isoxazol-3-yl)-2-(4-(6-(1-(2-morpholinoethyl)-1H-pyrazol-4-yl)quinoxalin-2-yl)phenyl) acetamide]	somewhat decreased ability to inhibit phosphorylation	activity comparable to quizartinib and superior to gilteritinib	type 2 inhibitor; also recorded: type 2 binding mode	neither compound displayed any concerning toxicity	retain activity	neither compound displayed any concerning toxicity	low nanomolar concentrations were sufficient to inhibit phosphorylation of FLT3	most potent of all the inhibitors evaluated	none of these were capable of conferring significant resistance	50	50	10
